{
  "source": "patent US20240284792A1",
  "about": "“ORGANIC COMPOUND, LIGHT-EMITTING DEVICE, DISPLAY APPARATUS, AND ELECTRONIC DEVICE” (SEMICONDUCTOR ENERGY LABORATORY CO., LTD., priority 2023, published 2024)",
  "experiment": "Solubility test (water solubility) by LC-MS analysis",
  "type": "physicochemical",
  "protocol": "In the LC-MS analysis, liquid chromatography (LC) separation was carried out with ACQUITY UPLC manufactured by Waters Corporation, and MS analysis (mass spectrometry) was carried out with Xevo G2 Tof MS manufactured by Waters Corporation. Acquity UPLC BEH C8 (2.1×100 mm, 1.7 μm) was used as a column for the LC separation. Acetonitrile was used for Mobile Phase A and a 0.1% aqueous solution of formic acid was used for Mobile Phase B. The injection amount of the sample was 5.0 μL. Note that in the analysis, the wavelength of a photodiode array detector was set to 330 nm±1 nm.\nIn a 5-mL sample bottle, 1 mg of SFPy-hpp was put and 2 mL of N,N-dimethylformamide was added thereto. This mixture was irradiated with ultrasonic waves for five minutes. After it was confirmed that the solid was completely dissolved, this solution was diluted by 2.5 times with acetonitrile, whereby the concentration of the solution was adjusted to 200 mg/L. This solution was diluted with acetonitrile, whereby a solution with a concentration of 4 mg/L, a solution with a concentration of 2 mg/L, and a solution with a concentration of 0.2 mg/L were prepared. The prepared solutions were subjected to LC-MS analysis, and the peak area values derived from SFPy-hpp, which were obtained at the respective solution concentrations, were used to form calibration curves.\nNext, the water solubility of SFPy-hpp was measured.\nIn a 5-mL sample bottle, 1 mg of SFPy-hpp was put and 1 mL of water was added thereto. This mixture was irradiated with ultrasonic waves for five minutes. This mixture was filtered through a membrane filter to remove the solid. The obtained solution was subjected to LC-MS analysis.",
  "data": [
    {"smiles": "c1cc(-c2ccc3c(c2)C2(c4ccccc4-c4ccccc42)c2ccccc2-3)nc(N2CCCN3CCCN=C32)c1", "note": "[SFPy-hpp, 1-[6-(9,9′-spirobi[9H-fluoren]-2-yl)pyridin-2-yl]-1,3,4,6,7,8-hexahydro-2H-pyrimido[1,2-a]pyrimidine]", "values": [
      {"measurement": "solubility in 1 mL of water", "setting": "1 mg compound in 1 mL water, ultrasonic waves five minutes, membrane filtered, LC-MS with calibration curve", "result": 0.00029, "unit": "mg"},
      {"measurement": "solubility at 5 min", "setting": "thermodynamic from solid, water, from calibration curve and LC-MS signal intensity, read-out: weight fraction of the water solubility", "result": 0.29, "unit": "µg/mL"},
      {"measurement": "water solubility (in words)", "setting": "water, conclusion from LC-MS solubility test", "result": "extremely low water solubility"}
    ]}
  ]
}
